Reference: patent publication US20070111966A1, “Method for the treatment and/or prevention of urinary disorders” (priority 2005, published 2007)

Tests used:
[1] = test system: Sprague-Dawley rats; assay: Example 1: diuresis after oral gavage of diuretic polyols; type: in vivo; details: for Diuresis 45 min / Diuresis 1 h 35 min / Diuresis 3 h / Diuresis 5 h / Diuresis 7 h / Cumulative diuresis over 24 h / Diuresis Before gavage: means on ten rats; for Diuresis 45 min: control A 0.9; for Diuresis 1 h 35 min / Diuresis 7 h: control A 0.6; for Diuresis 3 h: control A 0.4; for Diuresis 5 h: control A 0.7; for Cumulative diuresis over 24 h: control A 11.7; for Diuresis Before gavage: control A 3.2
Method: (§1) A batch of rats were orally administered doses of diuretic polyols so as to measure the diuretic effect of said polyols and their possible influence on the amount of water drunk. The study was carried out on a batch of thirty rats, for 4 days, and the trial doses were administered at a rate of 2 ml per animal and per day of solutions at 250 g/litre of polyols. Water is distributed to the animals ad libitum. The amounts of urine output and of drink consumed are measured by weighing.
(§2) The amounts of drink are expressed in grams per animal and per day. Diuresis is expressed in millilitres as a function of time. • Batch A: control batch • Batch B: erythritol gavage • Batch C: mannitol gavage • Batch D: isosorbide gavage • Batch E: 1/1 isosorbide-mannitol mixture
Diuresis (Means on Ten Rats, in Millilitres)

[2] = test system: Sprague-Dawley rats; assay: Example 1: consumption of drink after oral gavage of diuretic polyols; type: in vivo; details: for water consumption compared with the control (in words): after polyol gavage; for water consumption over four days: control batch A 11.2
Method: as §1, §2
Consumption of Drink (Means on Ten Rats)

[3] = gavage 2 ml per animal and per day of 250 g/litre solution, means on ten rats

Row | Structure (SMILES) | Diuresis 45 min [1] | Diuresis 1 h 35 min [1] | Diuresis 3 h [1] | Diuresis 5 h [1] | Diuresis 7 h [1] | Cumulative diuresis over 24 h [1] | Diuresis Before gavage [1] | water consumption compared with the control (in words) [2] | water consumption over four days [2, 3] | time from which an increase in diuresis is observed ([1]; after gavage) | water consumption ([2]; gavage 2 ml per animal and per day of 250 g/litre solution, means on ten rats, control batch A 24.8)
1 | O[C@@H]1CO[C@H]2[C@@H]1OC[C@@H]2O [D (isosorbide), isosorbide] | 1.5 millilitres | 1.1 millilitres | 1.2 millilitres | 1.1 millilitres | 0.6 millilitres | 13.0 millilitres | 2.4 millilitres | very slightly greater than the control | 13.1 g/animal/day |  | 
2 | OC[C@@H](O)[C@@H](O)CO [B (erythritol), erythritol] | 0.21 millilitres | 0.99 millilitres | 1.38 millilitres | 1.21 millilitres | 0.83 millilitres | 18.43 millilitres | 1.02 millilitres | not greater than the control |  | ≥ 3 h | 17.9 g/animal/day
3 | OC[C@@H](O)[C@@H](O)[C@H](O)[C@H](O)CO [C (mannitol), mannitol] | 0.3 millilitres | 0.3 millilitres | 0.7 millilitres | 0.5 millilitres | 1.3 millilitres | 16.5 millilitres | 3.0 millilitres | very slightly greater than the control | 13.9 g/animal/day |  | 
